Measurements as given in patent US20050233461A1, “High-throughput methods and systems for screening of compounds to treat/prevent kidney disorders” (priority 2002, published 2005).
Counter-ions that a name gives are not always drawn. Like-named read-outs stand apart in the source and are kept apart here.

Experiments:
[1] = high throughput screen of components for modifying calcium oxalate crystal growth (crystal imaging)
Method: Next, the seed crystals are incubated in supersaturated calcium oxalate medium. This medium may have one or more of components for testing. Nucleation and changes in a crystal property (such as crystal growth) are detected by comparing signals obtained from a sample at different times and/or after changing the medium. For example, a signal for a sample can be taken at the beginning of incubation, and then optionally at one or more times during incubation, and then at the end of incubation. The number and time for obtaining signals from or screening a sample will depend on the particular experiment and will be readily apparent to the skilled artisan. These signals or screens of samples may be photographs of birefringent spots, the size of the spots (measured in pixels), calculations based on the pixels and their distribution in a birefringence- or plain light-based image, in-situ Raman spectroscopy to monitor growth or determine the composition of one or more crystals, signals for the concentration of component(s) in the medium, and the like.
FIG. 2 illustrates one such embodiment. Sodium oxalate and calcium chloride solutions are prepared during steps 200 and 205 respectively. Following mixing during step 210 to obtain supersaturated calcium oxalate medium, also described in FIG. 1, monitoring while incubating during step 215 detects the formation of seed crystals. Next, the medium is removed during step 220 followed by addition of fresh medium containing test components during step 225. The test component(s) are preferably added to the sodium oxalate solution used to make the medium. Alternatively, they could be added in the calcium chloride solution for making the medium, or in a separate solution, or as solids, or even mixed in, or any combination thereof.
Some processing of arrays is also seen in the method illustrated in FIG. 2. Further incubation of seed crystals during step 230 and imaging during step 235 provide data about the growth and/or nucleation of crystals. The high throughput method of FIG. 2 includes estimating a nucleation and/or growth rate from a number of birefringent spots. An increase in the nucleation rate, or observing little or no crystal growth, ascribable to a component may indicate a therapeutic use for treating diseases, conditions, or disorders associated with calculi or crystal deposition (e.g., nephrolithiasis) by reducing the average size of the crystals, stones or calculi to facilitate excretion. Alternatively, a significant decrease in the nucleation rate ascribable to a component may indicate a therapeutic use for treating diseases, conditions, or disorders associated with calculi or crystal deposition (e.g., nephrolithiasis) by decreasing the rate of stone or calculi formation.
The photograph of the illuminated crystals, e.g., obtained in step 235 of FIG. 2, may be further analyzed to estimate a number of pixels corresponding to a crystal spot.
Other properties of crystals may also be obtained from the pixel measurements in step 240 of FIG. 2. The photograph of the illuminated crystals also allows an estimate of a long and a short dimension among many possible measures. These reflect the habit of the crystal spot and may be used to predict crystals that are likely to be excreted more easily. For instance, small and even shaped crystals are more likely to be excreted than spiny crystal shapes, thus permitting high throughput screening for promising therapeutic candidates.
In FIG. 7, during step 700 one or more substances of interest are identified. […] The identified substances, added in solutions of calcium chloride or sodium oxalate, are subjected to screening via a high-throughput growth inhibitor screen during step 705. Accordingly, growth of crystals in supersaturated calcium oxalate medium is observed in the presence or absence of identified substances. Such growth may be of seed crystals or may include nucleation of crystals as well as growth.

[2] = turbidity based assay of crystal nucleation and growth in supersaturated calcium oxalate solutions; conditions: FIG. 10 and FIG. 11
Description: FIG. 10 illustrates the effect of citrate on growth and nucleation of crystals in supersaturated calcium oxalate solutions as measured by turbidity at 620 nm.
FIG. 11 is an example of turbidity based assay showing crystal nucleation and growth in supersaturated calcium oxalate solutions prepared in accordance with the method of FIG. 1.
The system also includes means for preparing metastable formulations such as supersaturated solutions. In a preferred design, supersaturated media for nucleating and growing crystals are prepared by mixing two stable components to give rise to a metastable supersaturated solution. […] This supersaturated mixture may be monitored after incubation for a predetermined duration during step 115. […]
Preferably, calcium oxalate crystals are also used to seed the supersaturated calcium oxalate solution in some samples to assess their growth or the lack thereof. Absorbance at about 620 nm provides a measure of turbidity and a decrease in turbidity indicates either aggregation or crystals/precipitate or reduction in the precipitation/crystal growth of calcium oxalate crystals. It should be noted that turbidity may be measured at other wavelengths as well including wavelengths corresponding to visible light and ultraviolet light. Preferably, but not as a requirement, turbidity is measured by evaluating light scattered at an angle to the incident light. […]

[3] = supersaturated calcium oxalate, amounts and concentrations in FIGS. 9A and 9B

Molecule | large (intermediate to large) crystals: number / size observed [1, 3] | overall effect on calcium oxalate crystals (number of crystals) [1, 3] | also measured
O=C(O)C(O)c1ccc(Br)cc1 (stereo not shown) [4-bromomandelic acid] | larger sized crystals being formed |  | crystal habit / form of material observed [1, 3]: absence of plate like structures
CCCCCCCCCCCCCCCCC(C(=O)O)C(O)(CC(=O)O)C(=O)O (stereo not shown) [agaric acid] |  |  | crystal habit / form of material observed [1, 3]: formation of an emulsion/suspension
NS(=O)(=O)c1cc(C(=O)O)c(NCc2ccco2)cc1Cl [furosemide, reference compound] | many more large crystals |  | 
O=C(O)CNC(=O)c1ccccc1 [hippuric acid] |  | little effect | 
COc1ccc2c(c1)c(CC(=O)O)c(C)n2C(=O)c1ccc(Cl)cc1 [indomethacin, reference compound] | reduction in the number of large crystals |  | small crystals: number observed [1, 3]: little change in the number of small crystals
O=C([O-])[C@H](O)[C@@H](O)[C@H](O[C@@H]1O[C@H](CO)[C@H](O)[C@H](O)[C@H]1O)[C@H](O)CO.O=C([O-])[C@H](O)[C@@H](O)[C@H](O[C@@H]1O[C@H](CO)[C@H](O)[C@H](O)[C@H]1O)[C@H](O)CO.[Ca+2] [lactobionic acid hemi calcium salt] | presence of very large crystals in some wells |  | 
O=C(O)[C@H](O)[C@@H](O)[C@H](O[C@@H]1O[C@H](CO)[C@H](O)[C@H](O)[C@H]1O)[C@H](O)CO [lactobionic acid] |  | many small and large crystals | 
O=C(O)C(O)c1ccccc1 (stereo not shown) [mandelic acid] |  | little effect | 
CN(C)c1ccc2nc3ccc(=[N+](C)C)cc-3sc2c1 [methylene blue, reference compound] | reduction in large crystals |  | 
CCCN(CCC)S(=O)(=O)c1ccc(C(=O)O)cc1 [probenicid, reference compound] |  | little effect | small crystals: number observed [1, 3]: a few more small crystals
O=C(O)CC(O)(CC(=O)O)C(=O)O [sodium citrate] |  |  | turbidity of supersaturated calcium oxalate compared to supersaturated calcium oxalate by itself ([2]; 3 mM sodium citrate, turbidity at 620 nm): dramatically reduces the turbidity; formation of calcium oxalate crystals in a supersaturated calcium oxalate solution [2]: effective, although limited, in reducing the formation of calcium oxalate crystals
CC(=O)OC[C@H]1O[C@@](COC(C)=O)(O[C@H]2O[C@H](COC(C)=O)[C@@H](OC(C)=O)[C@H](OC(C)=O)[C@H]2OC(C)=O)[C@@H](OC(C)=O)[C@@H]1OC(C)=O [sucrose octaacetate] |  | increased number (countable) of crystals | 
O=C(O)C1OC(C(=O)O)C(C(=O)O)C1C(=O)O (stereo not shown) [tetrahydrofuran-2,3,4,5-tetracarboxylic acid] | reduced number of intermediate to large crystals |  | small crystals: number observed [1, 3]: increased number of small crystals
atrolactic acid hemihydrate |  |  | large (intermediate to large) crystals: number / size observed [1]: reduction in large crystals
